Measured values published in patent publication US20250017964A1, “ENGINEERING OR INDUCING PDGF AND/OR PDGFR SIGNALING TO ENHANCE NK CELL THERAPY” (City of Hope, priority 2021, published 2025).

Tests used:
Type in all cases: cell-based, human
[1] = tested on: PDGF-D promoter; test: ChIP-qPCR, binding of p65 to the PDGF-D promoter; details: IL-15-stimulated NK cells (1 h); not in resting NK cells
Procedure: FIGS. 5A-5J. IL-15 induces PDGF-D expression in an autocrine manner. (A) mRNA levels of PDGFA, PDGFB, PDGFC, and PDGF-D in T cells, B cells, and NK cells were analyzed using the BioGPS online tool. (B) mRNA levels of PDGFA, PDGFB, PDGFC, and PDGF-D in T cells, B cells, and NK cells were examined by qPCR (n=10). (C) Primary NK cells were treated with IL-15 (10 ng/ml) for the indicated times. mRNA levels of PDGF-D were examined by qPCR (n=3). (D-E) Representative dot plots and percentages of PDGF-D levels in NK cells after IL-15 (50 ng/ml) treatment for 24 h. Resting NK cells were used as control (n=5). […] (I-J) Binding of p65 to the PDGF-D promoter in IL-15 treated (I) or resting NK cells (J) as determined by ChIP-qPCR (n=3). Data represent three independent experiments. Data shown are means±SD. NS, not significant, *P<0.05, **P<0.01, ***P<0.001, and ****P<0.0001.
Primary NK cells were treated with IL-15 for 1 h. The cells were cross-linked in 1% formaldehyde and quenched with glycine buffer. ChIP assays were carried out using a Pierce Magnetic ChIP Kit (Cat No.26157, Thermo Scientific) according to the manufacturer's instructions. Digested chromatin was incubated overnight with a p65 ChIP-grade antibody (#8242, Cell Signaling Technology) or IgG control antibody (#3900, Cell Signaling Technology). The enriched chromatin was analyzed by qPCR using the following primers: […]

[2] = tested on: NK cells; test: NK cell expansion in vitro, cell counts by trypan blue exclusion; details: 7 days
[3] = tested on: NK cells; test: NK cell effector functions and surface receptors, flow cytometry; details: IL-15-primed NK cells (10 ng/ml), PDGF ligand 50 ng/ml, 48 h
Procedure: FIGS. 3A-3K. […] (A-E) Primary NK cells were treated with IL-15 (10 ng/ml) in the presence of PDGF-B (50 ng/ml) or PDGF-D (50 ng/ml) for 48 h. Expression levels of IFN-γ, TNF-α, granzyme B, perforin, and CD107a were examined by flow cytometry (n=5). (F-K) Primary NK cells were treated with IL-15 (10 ng/ml) plus PDGF-D (50 ng/ml) in the presence of anti-NKp44 (10 βg/ml) or anti-PDGFRβ (10 μg/ml) for 48 h. Expression levels of IFN-γ, TNF-α, and CD107a were examined by flow cytometry (n=3). Data represent three independent experiments. Data shown are means±SD. NS, not significant. *P<0.05, **P<0.01, and ***P<0.001.
FIGS. 10A-10K. […] (A-E) Representative histograms and summary data of IFN-γ, TNF-α, granzyme B, perforin, and CD107a in PDGFRβ^+ and PDGFRβ^− NK cells. Cells were gated on CD56^+PDGFRβ^+ or CD56^+PDGFRβ^− cells. (F) PDGFRβ^+ and PDGFRβ^− NK cells were sorted by flow cytometry and co-cultured with ^51 Cr-labeled K562 cells in a 96-well V-bottom plate at ratios of 5:1, 2.5:1, or 1.25:1 for 4 h at 37° C. in a 5% CO2 incubator. The supernatant was harvested and analyzed using a microbeta scintillation counter (n=3). […]
Cells were stained with the indicated cell-surface markers and/or fixed/permeabilized using a Fixation/Permeabilization Kit (eBioscience). […] Data were analyzed using NovoExpress software (Agilent Technologies).

Row | p65 enrichment at the PDGF-D promoter versus normal IgG control [1] | Substance | expansion of primary NK cells transduced with PDGFRβ ([2]; IL-2 50 U/ml and PDGF-D 50 ng/ml) | NK cell expansion ([2]; primary NK cells, IL-15 10 ng/ml and PDGF-D 50 ng/ml) | expression of IFN-γ, TNF-α, perforin, and CD107a [3] | expression of granzyme B [3]
1 | significantly enriched | IL-15: recombinant human IL-15 (200-15); recombinant murine IL-15 in the mouse NK cell test |  |  |  | 
2 |  | PDGF-D: recombinant human PDGF-DD (1159-SB-025), R&D Systems | enhanced the expansion | promoted cell expansion | induced | not granzyme B
